From article PMC11651915, “Small molecule protein assembly modulators with pan-cancer therapeutic efficacy” (Open Biology, 2024)

What was measured:
FaDu = test: Eurofins OncoPanel (CellTiter-Glo); assay type: cell-based; conditions: Homo sapiens, 72 h, 3 days
H9 = test: Eurofins OncoPanel (CellTiter-Glo); assay type: cell-based; conditions: Homo sapiens, 72 h, 3 days
MDA MB 436 = test: Eurofins OncoPanel (CellTiter-Glo); assay type: cell-based; conditions: Homo sapiens, 72 h, 3 days
SU-DHL-10 = test: Eurofins OncoPanel (CellTiter-Glo); assay type: cell-based; conditions: Homo sapiens, SU-DHL10, 72 h, 3 days
U2OS = test: Eurofins OncoPanel (CellTiter-Glo); assay type: cell-based; conditions: Homo sapiens, 72 h, 3 days
CCRF-CEM = test: cells; assay type: cell-based; conditions: Homo sapiens, NCI-60, 48 h
K-562 = test: cells; assay type: cell-based; conditions: Homo sapiens, K562, NCI-60, 48 h
A549/ATCC = test: cells; assay type: cell-based; conditions: Homo sapiens, NCI-60, 48 h
NCI-H460 = test: cells; assay type: cell-based; conditions: Homo sapiens, NCI-60, 48 h
COLO 205 = test: cells; assay type: cell-based; conditions: Homo sapiens, NCI-60, 48 h
HT29 = test: cells; assay type: cell-based; conditions: Homo sapiens, HT-29, NCI-60, 48 h
SW-620 = test: cells; assay type: cell-based; conditions: Homo sapiens, NCI-60, 48 h
MALME-3M = test: cells; assay type: cell-based; conditions: Homo sapiens, NCI-60, 48 h
IGROV1 = test: cells; assay type: cell-based; conditions: Homo sapiens, IGROV-1, NCI-60, 48 h
T-47D = test: cells; assay type: cell-based; conditions: Homo sapiens, T47D, NCI-60, 48 h
Hennes 20 cells = test: Cell growth recovery assay; assay type: cell-based, Chinese hamster; conditions: PAV-617 0.3 µM 24 h, PAV-951 0.4 µM 6 h, followed to day 14
Protocol: To confirm that the inhibition observed in low-density Hennes 20 cells resulted from temporary arrest of proliferation and not cell death, compound was removed after a period of treatment and cell growth was measured over the subsequent two weeks for recovery potential. Once compound was removed, following a period of recovery, cell proliferation was restored over time for both chemotypes (see figure 1f,g). By day 11, cell density in compound-treated cells had caught up to that in the DMSO-treated cells (see figure 1f,g).
A 96-well plate was seeded with either Hennes 20 or LNCaP C-33 cells at 500 cells per well in 90 µl of minimum essential media and incubated at 37°C for 24 h. 0.5% DMSO was diluted in media and added to six control wells for each plate. PAV-617 was diluted in media and added to three wells at a concentration of 0.3 µM. PAV-951 was diluted in media and added to concentration of 0.4 µM. After 24 h of PAV-617 treatment or 6 h of PAV-951 treatment, the medium containing compound was removed and replaced with fresh media. After 72 h (day 5), plates were assayed with AlamarBlue and fluorescence was read at 530/590. The medium containing AlamarBlue was removed and replaced with fresh media. After another 72 h (day 8) plates were assayed with AlamarBlue and fluorescence again, then medium containing AlamarBlue was removed and replaced with fresh media. […]

A549 and MRC-5 cells = test: Toxicity to A549 cancer line versus non-cancer MRC-5 cells; assay type: cell-based
[1] = tested on: A549 human lung cancer xenograft; conditions: mouse, in vivo
EKVX = test: cells; conditions: Homo sapiens, 48 h
NCI-H23 = test: cells; conditions: Homo sapiens, NCI-H23, 48 h
NCI-H322M = test: cells; conditions: Homo sapiens, 48 h
HCC-2998 = test: cells; conditions: Homo sapiens, HCC 2998, 48 h
SF-295 = test: cells; conditions: Homo sapiens, SF-295, 48 h
U251 = test: cells; conditions: Homo sapiens, U-251, 48 h
LOX IMVI = test: cells; conditions: Homo sapiens, 48 h
SK-MEL-5 = test: cells; conditions: Homo sapiens, SK-MEL-5, 48 h
OVCAR-3 = test: cells; conditions: Homo sapiens, OVCAR-3, 48 h
OVCAR-4 = test: cells; conditions: Homo sapiens, OVCAR-4, 48 h
NCI/ADR-RES = test: cells; conditions: Homo sapiens, 48 h
SK-OV-3 = test: cells; conditions: Homo sapiens, SK-OV-3, 48 h
SN12C = test: cells; conditions: Homo sapiens, 48 h
DU-145 = test: cells; conditions: Homo sapiens, DU-145, 48 h
MDA-MB-231/ATCC = test: cells; conditions: Homo sapiens, MDA-MB-231, 48 h
MDA-MB-468 = test: cells; conditions: Homo sapiens, MDA-MB-468, 48 h
in vivo = conditions: female, Balb/c, mouse, ip

In the case of `CC(C)CCNc1ncnc2cc(N3CCN(c4ccc5c(NCCC(C)C)ncnc5c4)CC3)ccc12` [PAV-951], the IC50 (FaDu) is reported as 0.523 µM, the IC50 (H9) is reported as 0.165 µM and the IC50 (MDA MB 436) is reported as 1.46 µM. It also gave an IC50 (SU-DHL-10) of 0.231 µM, an IC50 (U2OS) of 0.368 µM and a GI50 (CCRF-CEM) of 0.198 µM. The GI50 (K-562) was 0.131 µM, the GI50 (A549/ATCC) was 0.302 µM and the GI50 (NCI-H460) was 0.203 µM. The GI50 (COLO 205) was 0.61 µM, the GI50 (HT29) was 0.345 µM and the GI50 (SW-620) was 0.194 µM. It also gave a GI50 (MALME-3M) of 1.52 µM, a GI50 (IGROV1) of 0.287 µM and a GI50 (T-47D) of 0.952 µM. For the same molecule, the “recovery of cell growth after removal of compound” value (Hennes 20 cells) was “recovered over time”, the “toxicity to A549 cancer line compared with non-cancer MRC-5 cells” value (A549 and MRC-5 cells) was “selectively toxic to the A549 cancer line” and the “adverse effects at the doses of the xenograft studies” value [1] was “without any serious adverse effects”. It also gave a GI50 (EKVX) of 1.75 µM, a CC50 (EKVX; read-out: LC50) of 6.12 µM and a GI50 (NCI-H23) of 1.47 µM. The CC50 (NCI-H23; read-out: LC50) was 5.62 µM, the GI50 (NCI-H322M) was 1.2 µM and the CC50 (NCI-H322M; read-out: LC50) was 5.55 µM. It also gave a GI50 (HCC-2998) of 0.967 µM, a CC50 (HCC-2998; read-out: LC50) of 5.13 µM and a GI50 (SF-295) of 1.64 µM. The CC50 (SF-295; read-out: LC50) was 5.59 µM, the GI50 (U251) was 0.213 µM and the CC50 (U251; read-out: LC50) was 0.91 µM. It also gave a GI50 (LOX IMVI) of 0.183 µM, a CC50 (LOX IMVI; read-out: LC50) of 0.684 µM and a GI50 (SK-MEL-5) of 1.87 µM. For the same molecule, the CC50 (SK-MEL-5; read-out: LC50) was 9.12 µM, the GI50 (OVCAR-3) was 1.05 µM and the CC50 (OVCAR-3; read-out: LC50) was 4.79 µM. For the same molecule, the GI50 (OVCAR-4) was 0.452 µM, the CC50 (OVCAR-4; read-out: LC50) was 4.56 µM and the GI50 (NCI/ADR-RES) was 0.401 µM. It also gave a CC50 (NCI/ADR-RES; read-out: LC50) of 4.85 µM, a GI50 (SK-OV-3) of 1.55 µM and a CC50 (SK-OV-3; read-out: LC50) of 6.34 µM. The GI50 (SN12C) was 0.28 µM, the CC50 (SN12C; read-out: LC50) was 3.41 µM and the GI50 (DU-145) was 0.283 µM. The CC50 (DU-145; read-out: LC50) was 2.83 µM, the GI50 (MDA-MB-231/ATCC) was 0.488 µM and the CC50 (MDA-MB-231/ATCC; read-out: LC50) was 4.42 µM. The GI50 (MDA-MB-468) was 1.47 µM, the CC50 (MDA-MB-468; read-out: LC50) was 5.61 µM and the MTD (in vivo) was 2.5 mg/kg.
